Laboratory results taken from the supplement of paper PMC10307832.

How the values were obtained:
Assay in all cases: relative viability (nuclei count vs DMSO), 5 days (fraction); higher = more cells survive
[1] = compound: CCN1C(=O)C2=CC(=C(N=C2N(C1=O)C3CC3)N)C(=O)N + CS(=O)(=O)N1CCN(Cc2cc3nc(-c4cccc5[nH]ncc45)nc(N4CCOCC4)c3s2)CC1 [Pictilisib] (partner 1 µM)
Summary of the method: (§1)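 Dosing by pin tool came one day after lung cancer cell lines were seeded in 1536-well plates, using either one drug or a fixed anchor-drug dose plus five library-drug doses (not always all listed) in √10 steps. After 5 days, nuclei were counted on 4× images. Relative viability is treated-well nuclei count divided by vehicle-well nuclei count, and values are medians of duplicate plates.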

[2] = compound: CCN1C(=O)C2=CC(=C(N=C2N(C1=O)C3CC3)N)C(=O)N + N=C(N)NC(=N)NCCc1ccccc1 [Phenformin] (partner 250 µM)
Summary of the method: as §1

[3] = compound: CCN1C(=O)C2=CC(=C(N=C2N(C1=O)C3CC3)N)C(=O)N + Cc1nc(NC(=O)N2CCC[C@H]2C(N)=O)sc1-c1ccnc(C(C)(C)C(F)(F)F)c1 [Alpelisib] (partner 2 µM)
Summary of the method: as §1

[4] = compound: CCN1C(=O)C2=CC(=C(N=C2N(C1=O)C3CC3)N)C(=O)N + O=C(CCCCCCC(=O)Nc1ccccc1)NO [Vorinostat] (partner 1 µM)
Summary of the method: as §1

[5] = compound: CCN1C(=O)C2=CC(=C(N=C2N(C1=O)C3CC3)N)C(=O)N + Cc1cc(Nc2cc(N3CCN(C)CC3)nc(Sc3ccc(NC(=O)C4CC4)cc3)n2)n[nH]1 [Tozasertib] (partner 0.1 µM)
Summary of the method: as §1

Cell Line | relative viability ([1]; first compound 0.253 µM) | relative viability ([1]; first compound 0.8 µM) | relative viability ([1]; first compound 2.53 µM) | relative viability ([1]; first compound 8 µM) | relative viability ([2]; first compound 0.253 µM) | relative viability ([2]; first compound 0.8 µM) | relative viability ([2]; first compound 2.53 µM) | relative viability ([2]; first compound 8 µM) | relative viability ([3]; first compound 0.253 µM) | relative viability ([3]; first compound 0.8 µM) | relative viability ([3]; first compound 2.53 µM) | relative viability ([3]; first compound 8 µM) | relative viability ([4]; first compound 0.253 µM) | relative viability ([4]; first compound 0.8 µM) | relative viability ([4]; first compound 2.53 µM) | relative viability ([4]; first compound 8 µM) | relative viability ([5]; first compound 0.253 µM) | relative viability ([5]; first compound 0.8 µM) | relative viability ([5]; first compound 2.53 µM) | relative viability ([5]; first compound 8 µM)
NCI-H1755 | 0.431 | 0.405 | 0.452 | 0.488 | 0.647 | 0.607 | 0.381 | 0.665 | 0.946 | 0.922 | 0.946 | 0.913 | 0.743 | 0.722 | 0.76 | 0.719 | 0.567 | 0.515 | 0.514 | 0.528
NCI-H1793 | 0.267 | 0.308 | – | 0.303 | – | 0.38 | 0.352 | 0.408 | 0.715 | 0.644 | – | 0.63 | 0.665 | 0.747 | 0.797 | 0.805 | – | 0.375 | 0.265 | 0.298
NCI-H1915 | 0.953 | 0.843 | 0.953 | 0.904 | 0.367 | 0.362 | 0.376 | 0.36 | 1.1 | 0.985 | 1.01 | 1.06 | 0.49 | 0.546 | 0.493 | 0.436 | 0.451 | 0.33 | 0.393 | 0.416
NCI-H1944 | 0.354 | 0.354 | 0.342 | 0.308 | 0.255 | 0.218 | 0.208 | 0.204 | 0.826 | 0.832 | 0.749 | 0.842 | 0.641 | 0.51 | 0.51 | 0.553 | 0.26 | 0.266 | 0.247 | 0.279
NCI-H1975 | 0.276 | 0.293 | 0.306 | 0.306 | 0.416 | 0.417 | 0.406 | 0.375 | 0.635 | 0.653 | 0.614 | 0.619 | 0.733 | 0.772 | 0.697 | 0.757 | 0.738 | 0.737 | 0.608 | 0.331
NCI-H1993 | 0.706 | 0.832 | 0.786 | 0.758 | 0.526 | 0.457 | 0.524 | 0.438 | 0.651 | 0.7 | 0.611 | 0.669 | 0.0267 | 0.735 | 0.76 | 0.853 | 0.6 | 0.569 | 0.537 | 0.512
NCI-H2009 | 0.874 | 0.803 | 0.8 | 0.771 | 0.481 | 0.485 | 0.453 | 0.453 | 1.17 | 1.11 | 1.13 | 1.09 | 0.732 | 0.647 | 0.62 | 0.663 | 0.732 | 0.751 | 0.697 | 0.809
NCI-H2023 | 0.229 | 0.218 | 0.23 | 0.26 | 0.411 | 0.42 | 0.357 | 0.388 | 0.634 | 0.542 | 0.574 | 0.584 | 0.628 | 0.58 | 0.68 | 0.712 | 0.402 | 0.32 | 0.241 | 0.233
